Reference: US8945540B2, “Compositions for enhancing the antibacterial activity of myeloperoxidase and methods of use thereof” (Exoxemis, Inc., priority 2008, dated 2015)
Like-named read-outs stand apart in the source and are kept apart here.

What was measured:
Staphylococcus aureus [1] = test: Control: microbicidal activity of the amino acid or analogue alone (no glucose, MPO, glucose oxidase) in the presence of blood; type: cell-based; conditions: for log reduction at 5000 µM: Staphylococcus aureus, 1 h, read-out: Log Reduction 60 min
Excerpt: As a control to determine the microbicidal activity of the amino acids alone, the foregoing procedure was followed without replication, except in the absence of glucose, MPO, and glucose oxidase.

Staphylococcus aureus [2] = test: Microbicidal activity of the myeloperoxidase system (p-MPO, glucose oxidase, glucose) with amino acids in the presence of blood, CFU plate counts; synergy determination from these CFU; type: cell-based; conditions: for Average Viability CFU/ml 50 min / Log Reduction 50 min: MPO 4.7 U/ml, GO 4.2 U/ml
Experimental: Bacterial suspensions, specifically Staphylococcus aureus in this example, were prepared by the shake flask method to achieve late log to early stationary phase growth. Bacteria were grown 24 hours in trypticase soy broth (TSB) at 35° C. The cultures were centrifuged at 4,000 rpm for 10 minutes and the supernatants removed. The pellet was collected and washed twice with sterile 0.9% normal saline (NS). The washed microorganisms were suspended and diluted with normal saline to a 3 McFarland standard, i.e., approximately 10^9 bacteria colony forming units (CFU) per mL. Actual colony counts are confirmed by serial dilutions (10^−1 to 10^−5 or 10^−6) plated on TSA and incubated overnight at 35° C. To obtain an approximate final working target inoculum of 10^7 CFU/mL, 15 microliters of organisms per mL of final reaction mixture are used.
Glucose oxidase (GO) from Aspergillus Niger was purchased from Biozyme, Inc., UK, Cat #GO3A, 270 U/mg). Porcine Myeloperoxidase (p-MPO) (Exoxemis, Inc., Little Rock, Ark. U.S.A., 375 U/mg). Sterile stock solutions of D-glucose and sodium chloride were prepared and used at a final concentration of 150 mM each. L-Lysine hydrochloride (Spectrum Chemical Cat #L1142) was prepared as a 100 mM stock solution. Catalase (Sigma, Cat #C-40) was prepared as a 1% stock solution in sterile 0.9% normal saline. Blood was collected by venipuncture and used as whole blood within the same day.
Staphylococcus aureus were used to give a final target concentration of 2-3×10^7 CFU (7.4 log 10) per mL and venous whole blood was used to give a final concentration of 3%. Glucose was added to the reaction mixtures to a final concentration of 150 mM, which initiated the microbicidal reaction. The final volume of the reaction mixtures was 1 mL. The reactions were allowed to run from 30 minutes to 2 hours, as needed, at room temperature or at 37° C. in a dry bath. At the specified time points the reaction mixtures were treated with 100 microliters of a catalase solution, containing a minimum of 100 units/μL, to consume remaining peroxide and terminate the oxidative killing. Serial dilution plate counts were performed from the contents of each vial in sterile saline and inoculated onto trypticase soy agar (TSA) for quantitative culture. Plates were then incubated at 37° C. and counts taken at 24 hours. […] The results are shown in Table 1, as the average of 2 replicates.
The amino acids alone, in the absence of MPO were tested to rule out their microbicidal activity. The results are shown in Table 2 to Table 6, as the average of 2 replicates.
The amino acid analogues alone, in the absence of MPO, were tested to rule out their microbicidal activity. […]
The effect of two-way combinations of individual amino acids with L-isoleucine, as potential enhancing agents, for MPO microbicidal action in the presence of blood, was therefore examined by following the procedure of Example 5.
The Actual CFU observed for the pair is then divided by the Predicted CFU and multiplied by 100 to calculate the % of Predicted value. This value is then to be compared to the threshold value, discussed in the next section, to determine whether the pair are synergistic, antagonistic, or additive.
Calculation of appropriate threshold values for determination of synergism and antagonism was based upon the variability of replicated CFU survivor measures.

[3] = amino acid alone 5 mM, MPO 0, GO 0, no glucose, blood, without replication
[4] = L-lysine 5 mM, MPO 9 U/ml, GO 0.833 U/ml, 3% blood
[5] = L-lysine 5 mM, MPO 9 U/ml, GO 8.33 U/ml, 3% blood
[6] = L-lysine 5 mM, MPO 38 U/ml, GO 3.3 U/ml, 3% blood
[7] = L-lysine 5 mM, MPO 38 U/ml, GO 33.3 U/ml, 3% blood
[8] = L-lysine 20 mM, MPO 38 U/ml, GO 3.3 U/ml, 3% blood
[9] = L-lysine 20 mM, MPO 38 U/ml, GO 33.3 U/ml, 3% blood
[10] = L-lysine […], MPO 9 U/ml, GO 0.833 U/ml, 3% blood
[11] = L-lysine […], MPO 9 U/ml, GO 8.33 U/ml, 3% blood
[12] = MPO 100 μg/mL, AA 20 mM, 30 min
[13] = MPO 100 μg/mL, AA 20 mM, 60 min
[14] = Table 2, amino acid 5 mM (none: 0 mM), MPO 38 U/ml, GO 33.3 U/ml, blood
[15] = Table 10, single amino acid 2.5 mM, in the presence of blood, 50 min
[16] = Table 11, single amino acid 2.5 mM, in the presence of blood, 50 min
[17] = Table 13, single amino acid 2.5 mM, in the presence of blood, 50 min
[18] = Table 14, single amino acid 2.5 mM, in the presence of blood, 50 min
[19] = Table 5, amino acid 5 mM (none: 0 mM), MPO 38 U/ml, GO 33.3 U/ml, blood
[20] = Table 19, amino acid (racemic, L- or D-form) 2.5 mM, 50 min
[21] = single amino acid 2.5 mM, blood

## NCCCC[C@H](N)C(=O)O [L-Lysine]
Staphylococcus aureus [1]
  log reduction at 5000 µM: 0
Staphylococcus aureus [1]; [3]
  Average Viability CFU/ml 60 min: 21400000 CFU/ml
Staphylococcus aureus [2]; [4]
  Average Viability CFU/ml 30 min: 775000 CFU/ml
  Average Viability CFU/ml 60 min: 53000 CFU/ml
  Log Reduction 30 min: 1.5
  Log Reduction 60 min: 2.7
Staphylococcus aureus [2]; [5]
  Average Viability CFU/ml 30 min: 675000 CFU/ml
  Average Viability CFU/ml 60 min: 47 CFU/ml
  Log Reduction 30 min: 1.6
  Log Reduction 60 min: 5.7
Staphylococcus aureus [2]; [6]
  Average Viability CFU/ml 30 min: 6050 CFU/ml
  Average Viability CFU/ml 60 min: 770 CFU/ml
  Log Reduction 30 min: 3.6
  Log Reduction 60 min: 4.5
Staphylococcus aureus [2]; [7]
  Average Viability CFU/ml 30 min: 7 CFU/ml
  Average Viability CFU/ml 60 min: 3 CFU/ml
  Log Reduction 30 min: 6.5
  Log Reduction 60 min: 6.8
Staphylococcus aureus [2]; [8]
  Average Viability CFU/ml 30 min: 6450 CFU/ml
  Average Viability CFU/ml 60 min: 620 CFU/ml
  Log Reduction 30 min: 3.6
  Log Reduction 60 min: 4.6
Staphylococcus aureus [2]; [9]
  Average Viability CFU/ml 30 min: 5 CFU/ml
  Average Viability CFU/ml 60 min: 5 CFU/ml
  Log Reduction 30 min: 6.6
  Log Reduction 60 min: 6.6
Staphylococcus aureus [2]; [10]
  Average Viability CFU/ml 30 min: 5050000 CFU/ml
  Average Viability CFU/ml 60 min: 620000 CFU/ml
  Log Reduction 30 min: 0.7
  Log Reduction 60 min: 1.6
Staphylococcus aureus [2]; [11]
  Average Viability CFU/ml 30 min: 6200000 CFU/ml
  Average Viability CFU/ml 60 min: 4950 CFU/ml
  Log Reduction 30 min: 0.6
  Log Reduction 60 min: 3.7
Staphylococcus aureus [2]; MPO 25 μg/mL, AA 5 mM, 30 min
  Log 10 (CFU + 1) Survivors: 5.8
Staphylococcus aureus [2]; MPO 25 μg/mL, AA 5 mM, 60 min
  Log 10 (CFU + 1) Survivors: 1.6
Staphylococcus aureus [2]; MPO 25 μg/mL, AA […], 30 min
  Log 10 (CFU + 1) Survivors: 6.8
Staphylococcus aureus [2]; MPO 25 μg/mL, AA […], 60 min
  Log 10 (CFU + 1) Survivors: 3.7
Staphylococcus aureus [2]; MPO 100 μg/mL, AA 5 mM, 30 min
  Log 10 (CFU + 1) Survivors: 0.9
Staphylococcus aureus [2]; MPO 100 μg/mL, AA 5 mM, 60 min
  Log 10 (CFU + 1) Survivors: 0.5
Staphylococcus aureus [2]; [12]
  Log 10 (CFU + 1) Survivors: 0.8
Staphylococcus aureus [2]; [13]
  Log 10 (CFU + 1) Survivors: 0.8
Staphylococcus aureus [2]; [14]
  Average Viability CFU/ml 60 min: 0 CFU/ml
  Log 10 (CFU + 1) Survivors 60 min: 0.0
  Log Reduction 60 min: 7.4
Staphylococcus aureus [2]; [15]
  Average Viability CFU/ml 50 min: 16200000 CFU/ml
  Log Reduction 50 min: 0.2
Staphylococcus aureus [2]; [16]
  Average Viability CFU/ml 50 min: 18900000 CFU/ml
  Log Reduction 50 min: 0.2
Staphylococcus aureus [2]; [17]
  Average Viability CFU/ml 50 min: 11400000 CFU/ml
  Log Reduction 50 min: 0.3
Staphylococcus aureus [2]; [18]
  Average Viability CFU/ml 50 min: 16950000 CFU/ml
  Log Reduction 50 min: 0.2

## CC[C@@H](C)[C@@H](N)C(=O)O [D-Isoleucine]
Staphylococcus aureus [1]; [3]
  log reduction at 5000 µM: 0.1
  Average Viability CFU/ml 60 min: 21300000 CFU/ml
Staphylococcus aureus [2]; MPO 25 μg/mL, AA 5 mM, 30 min
  Log 10 (CFU + 1) Survivors: 0.0
Staphylococcus aureus [2]; MPO 25 μg/mL, AA 5 mM, 60 min
  Log 10 (CFU + 1) Survivors: 0.0
Staphylococcus aureus [2]; MPO 25 μg/mL, AA […], 30 min
  Log 10 (CFU + 1) Survivors: 6.0
Staphylococcus aureus [2]; MPO 25 μg/mL, AA […], 60 min
  Log 10 (CFU + 1) Survivors: 1.1
Staphylococcus aureus [2]; MPO 100 μg/mL, AA 5 mM, 30 min
  Log 10 (CFU + 1) Survivors: 0.0
Staphylococcus aureus [2]; MPO 100 μg/mL, AA 5 mM, 60 min
  Log 10 (CFU + 1) Survivors: 0.0
Staphylococcus aureus [2]; [12]
  Log 10 (CFU + 1) Survivors: 0.0
Staphylococcus aureus [2]; [13]
  Log 10 (CFU + 1) Survivors: 0.0
Staphylococcus aureus [2]; [19]
  Average Viability CFU/ml 60 min: 0 CFU/ml
  Log Reduction 60 min: 7.4
Staphylococcus aureus [2]; [16]
  Average Viability CFU/ml 50 min: 196000 CFU/ml
  Log Reduction 50 min: 2.1
Staphylococcus aureus [2]; [20]
  Average Viability CFU/ml 50 min: 196000 CFU/ml
  Log Reduction 50 min: 2.1
Staphylococcus aureus [2]; [21]
  Average Viability CFU/ml 50 min: 196000 CFU/ml
  Log Reduction 50 min: 2.1
Staphylococcus aureus [2]; standard conditions of Example 5 (2.5 μmol/mL; MPO 4.7 U/mL; GO 4.2 U/mL)
  CFU survivors, amino acid acting separately: 196000 CFU
